Measurements published in patent US20100298141A1, “SUBSTITUTED PYRIDINE N-OXIDE HERBICIDES” (E. I. DU PONT DE NEMOURS AND COMPANY, priority 2007, published 2010).

What was measured:
[1] = system: yellow nutsedge; assay: Test C pre-/postemergence test; type: in vivo, Cyperus esculentus; settings: Preemergence
Method in brief: (§1)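 Seeds were planted and treated preemergence with test chemical in a non-phytotoxic solvent mixture containing surfactant. Postemergence applications of the same formulation went onto plants 2 to 18 cm tall (1- to 4-leaf stage). A dash marks no test result.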

[2] = system: pigweed; assay: Test C pre-/postemergence test; type: in vivo, Amaranthus retroflexus; settings: Preemergence
Method in brief: as §1

[3] = system: woolly cupgrass; assay: Test C pre-/postemergence test; type: in vivo, Eriochloa villosa; settings: Preemergence
Method in brief: as §1

[4] = system: soybean; assay: Test C pre-/postemergence test; type: in vivo, Glycine max; settings: 62 g ai/ha, Preemergence; scale 0 to 100
Method in brief: as §1

[5] = system: green foxtail; assay: Test C pre-/postemergence test; type: in vivo, Setaria viridis; settings: Preemergence
Method in brief: as §1

[6] = system: cocklebur; assay: Test C pre-/postemergence test; type: in vivo, Xanthium strumarium
Method in brief: as §1

[7] = system: Italian ryegrass; assay: Test C pre-/postemergence test; type: in vivo, Lolium multiflorum; settings: Preemergence
Method in brief: as §1

[8] = system: wheat; assay: Test C pre-/postemergence test; type: in vivo, Triticum aestivum; settings: Preemergence
Method in brief: as §1

[9] = system: kochia; assay: Test C pre-/postemergence test; type: in vivo, Kochia scoparia; settings: Preemergence
Method in brief: as §1

[10] = system: common (oilseed) sunflower; assay: Test C pre-/postemergence test; type: in vivo, Helianthus annuus; settings: Preemergence
Method in brief: as §1

[11] = system: corn; assay: Test C pre-/postemergence test; type: in vivo, Zea mays
Method in brief: as §1

[12] = system: blackgrass; assay: Test C pre-/postemergence test; type: in vivo, Alopecurus myosuroides
Method in brief: as §1

[13] = system: morningglory; assay: Test C pre-/postemergence test; type: in vivo, Ipomoea coccinea; settings: Preemergence
Method in brief: as §1

[14] = system: barnyardgrass; assay: Test A pre-/postemergence greenhouse test; type: in vivo, Echinochloa crus-galli; settings: for Barnyardgrass plant response rating: 0 to 100 scale
Method in brief: (§2)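 Visual injury ratings against untreated controls, taken roughly ten days after treatment in greenhouse. Plants were sprayed postemergence at one- to two-leaf stage (2–10 cm tall); at the same time, seeded loam/sand soil received a directed preemergence spray. Formulation: non-phytotoxic solvent mixture with surfactant.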

[15] = system: umbrella sedge; assay: Test C flooded paddy test; type: in vivo, Cyperus difformis; settings: Flood
Method in brief: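 Under a constant 3 cm flood, test compounds went directly into the paddy water. Following 13 to 15 days of greenhouse growth, treated species and controls were compared by eye.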

[16] = system: morningglory; assay: Test A pre-/postemergence greenhouse test; type: in vivo, Ipomoea spp.; settings: for Morningglory plant response rating: 0 to 100 scale
Method in brief: as §2

[17] = system: crabgrass; assay: Test C pre-/postemergence test; type: in vivo, Digitaria sanguinalis; settings: Preemergence
Method in brief: as §1

[18] = 31 g ai/ha, scale 0 to 100 (0 no effect, 100 complete control)
[19] = 62 g ai/ha, Preemergence, scale 0 to 100
[20] = Preemergence, 31 g ai/ha, scale 0 to 100 (0 no effect, 100 complete control)
[21] = preemergence, 125 g ai/ha, scale 0 (no effect) to 100 (complete control)
[22] = Postemergence, 125 g ai/ha, 0 is no effect, 100 is complete control
[23] = Postemergence, 500 g ai/ha, 0 is no effect, 100 is complete control
[24] = Preemergence, 125 g ai/ha, 0 no effect, 100 complete control
[25] = Preemergence, 500 g ai/ha, 0 to 100 scale where 0 is no effect and 100 is complete control

Cn1nc(C(F)(F)F)c(CS(=O)(=O)c2cccc[n+]2[O-])c1OCC(F)(F)F [Compound 29]
10: Plant response rating (0 to 100), Cocklebur ([6]; Preemergence, 250 g ai/ha) | Morningglory plant response rating ([13]; 62 g ai/ha, scale 0 to 100)
98: Plant response rating (0 to 100), Corn ([11]; Preemergence, 250 g ai/ha) | Corn plant response rating [11, 21] | Plant response rating, Blackgrass [12, 20]
85: Plant response rating, Foxtail, Green [5, 18] | Ryegrass, Italian plant response rating ([7]; 62 g ai/ha, scale 0 to 100)
95: Plant response rating, Sedge, Umbrella ([15]; 250 g ai/ha, scale 0 to 100, 0 no effect, 100 complete control, 13 to 15 days)
90: Barnyardgrass plant response rating [14, 23] | Plant response rating, Sedge, Umbrella ([15]; 62 g ai/ha, scale 0 to 100, 0 no effect, 100 complete control, 13 to 15 days) | Plant response rating, Sedge, Umbrella ([15]; 125 g ai/ha, scale 0 to 100, 0 no effect, 100 complete control, 13 to 15 days)
0: Cocklebur plant response rating [6, 19] | Plant response rating, Cocklebur [6, 20] | Cocklebur plant response rating [6, 21] | Plant response rating, Sunflower [10, 18] | Plant response rating, Corn [11, 20] | Plant response rating, Morningglory [13, 18]
30: Wheat plant response rating ([8]; 62 g ai/ha, scale 0 to 100) | Morningglory plant response rating [16, 22]
20: Plant response rating, Wheat [8, 18]
100: Nutsedge, Yellow plant response rating ([1]; 62 g ai/ha, scale 0 to 100) | Pigweed plant response rating ([2]; 62 g ai/ha, scale 0 to 100) | Plant response rating, Pigweed [2, 18] | Cupgrass, Woolly plant response rating ([3]; 62 g ai/ha, scale 0 to 100) | Plant response rating (0 to 100), Cupgrass, Woolly ([3]; 250 g ai/ha) | Foxtail, Green plant response rating ([5]; 62 g ai/ha, scale 0 to 100) | Plant response rating (0 to 100), Foxtail, Green ([5]; 250 g ai/ha) | Kochia plant response rating ([9]; 62 g ai/ha, scale 0 to 100) | Plant response rating, Kochia [9, 18] | Blackgrass plant response rating [12, 19] | Plant response rating (0 to 100), Blackgrass ([12]; Preemergence, 250 g ai/ha) | Blackgrass plant response rating [12, 21] | Barnyardgrass plant response rating [14, 24] | Plant response rating, Barnyardgrass [14, 25] | Crabgrass, Large plant response rating ([17]; 62 g ai/ha, scale 0 to 100) | Plant response rating, Crabgrass, Large [17, 18] | Plant response rating (0 to 100), Crabgrass, Large ([17]; 250 g ai/ha)
70: Soybean plant response rating [4] | Morningglory plant response rating [16, 24]
60: Plant response rating, Ryegrass, Italian [7, 18] | Sunflower plant response rating ([10]; 62 g ai/ha, scale 0 to 100)
80: Plant response rating, Nutsedge, Yellow [1, 18] | Plant response rating, Cupgrass, Woolly [3, 18] | Corn plant response rating [11, 19] | Barnyardgrass plant response rating [14, 22] | Plant response rating, Sedge, Umbrella [15, 18] | Morningglory plant response rating [16, 23] | Plant response rating, Morningglory [16, 25]
